# Measured values published in US6825230B2, “Spiro and dispiro 1,2,4-trixolane antimalarials” (Medicines for Malaria Venture MMV, priority 2002, dated 2004).
# Key:
# [1] = system: ANKA strain of Plasmodium berghei; assay: Single dose ED50/ED90/ED99 determination in infected mice; format: in vivo; conditions: single dose po in SSV on day 1 post-infection; parasitemia day 3; nonlinear fitting
# In short: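 Moro SPF or NMRI mice (three per group) infected with P. berghei ANKA were dosed once on day 1 post-infection in SSV (0.5% CMC, 0.5% benzyl alcohol, 0.4% Tween 80, 0.9% NaCl). Parasitemia reduction was scored on day 3; ED values (mg/kg) came from nonlinear fitting.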
# [2] = system: Schistosoma mansoni 21-day-old schistosomules; assay: Effect on 21-day-old schistosomules in infected mice; format: in vivo; conditions: single 200 mg/kg per os, 21-day-old schistosomules; for % reduction of schistosomule growth at day 21 after per os application of 200 mg/kg, FWR (%): female worm reduction rate; for % reduction of schistosomule growth at day 21 after per os application of 200 mg/kg, TWR (%): total worm reduction rate
# Description: Mice were infected with 100 Schistosoma mansoni cercariae on day 21 post-treatment. Each group was treated per os with trioxolanes at a single dose of 200 mg/kg. […] All groups were killed 4 weeks after treatment and the liver and intestine were removed and separated. The liver and intestine were compressed and alive male and female worms could be seen and counted. The effect of the compounds was evaluated by mean total and female worm burden.
# [3] = system: Schistosoma mansoni adult worms (49-day-old); assay: Effect on adult schistosomes (49-day-old) in infected mice; format: in vivo; conditions: for % reduction of adult worms growth at day 49 after per os application of 400 mg/kg, TWR (%) / Adult worms day 49, per os 400 mg/kg, DEAD WORM (%): single 400 mg/kg per os
# Description: Mice were infected with 100 Schistosoma mansoni cercariae on day 49 post-treatment. Each group was treated per os with OZ compounds at single doses of 200, 400, and 600 mg/kg. Untreated mice served as the control. All groups were killed 4 weeks after treatment and the liver and intestine were removed and separated. The liver and intestine were compressed and alive male and female worms could be seen and counted.
# P. berghei ANKA strain [4] = assay: Onset of action and recrudescence experiment, single 100 mg/kg po; format: in vivo, Plasmodium berghei; conditions: single 100 mg/kg po (SSV) on day +3 post-infection; recrudescence = >5% parasitemia; followed up to 60 days; groups of five
# Description: The onset of drug action was determined after a single fixed dose of 100 mg/kg (SSV vehicle) po to groups of five animals on day +3 post-infection (day 0).
# (§1) Moro NMRI male mice (Fu Albino specific pathogen free) weighing 18±2 g were infected intravenously (i.v.) with 2×10^7 P. berghei ANKA strain-infected erythrocytes from donor mice on day 0 of the experiment. From donor mice with circa 30% parasitemia, heparinized blood was taken and diluted in physiological saline to 10^8 parasitized erythrocytes per ml. An aliquot (0.2 ml) of this suspension was injected i.v. into experimental and control groups of mice. […] Throughout the experiments, mice were kept in groups of three or five animals in Makrolon type II cages in an air-conditioned animal room at 22 to 23° C.
# [5] = system: ANKA strain of P. berghei; assay: Single dose STI in vivo screen in infected mice; set-up: species or system Plasmodium berghei
# [6] = Pharmacokinetics in rats (IV and oral dosing); conditions: in vivo, po, 25 mg/kg
# Source text: Artesunate is listed as a reference compound.
# P. berghei ANKA strain [7] = assay: Prophylactic activity, single 100 mg/kg po at various times before infection; format: in vivo, Plasmodium berghei; conditions: parasitemia reduction on day 3 post-infection
# Description: as §1
# Prophylactic activities of the compounds were compared after administering po single dose of 100 mg/kg to different groups of five animals at various times before infection. All groups including an untreated control group, were then infected at the same time. Parasitemia was determined for each animal on day 3 post-infection, and percent of reduction of the level of parasitemia compared to levels for animals given no drug is determined.
# P. berghei ANKA strain [8] = assay: Divided 3x10 mg/kg vs single 1x30 mg/kg po dose in infected mice; format: in vivo, Plasmodium berghei
# Description: as §1
# They were administered per os (p.o.) in a total volume of 0.01 ml per gram of mouse. The activity of the compound was determined by a variety of methods outlined in subsequent sections. Survival time was also recorded, and survival to day 30 post-infection was considered to be a cure.
# The first experiment conducted consisted of administration of a divided 3×10 mg/kg p.o. dose administered on days 1, 2, and 3 post-infection vs. a single 1×30 mg/kg po dose administered on day 1 post-infection. On day 4 post-infection, blood smears of all animals were prepared and stained with Giemsa. […] Compounds were administered orally in the SSV vehicle.
# P. berghei ANKA strain [9] = assay: Divided 3x3 mg/kg and 3x1 mg/kg po doses in infected mice; format: in vivo, Plasmodium berghei; conditions: for Activity (%): percent reduction of parasitemia vs control on day 4
# In short: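 Male NMRI mice were infected i.v. with 2×10^7 P. berghei-parasitized erythrocytes on day 0, then dosed orally in SSV vehicle on days 1, 2 and 3 post-infection.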
# [10] = 49-day-old adults, total worm reduction rate
# [11] = percentage of dead worm in the liver
# [12] = 3 × 1 mg/kg p.o. SSV on days 1, 2, 3 post-infection
# [13] = 3 × 3 mg/kg p.o. SSV on days 1, 2, 3 post-infection
structure (smiles),measurement,setting,value
O=C(O)CC1CCC2(CC1)OOC1(O2)C2CC3CC(C2)CC1C3 (stereo not drawn) [OZ78],ED90,[1],9.1 mg/kg
same,ED99,[1],17 mg/kg
same,"% reduction of schistosomule growth at day 21 after per os application of 200 mg/kg, FWR (%)",[2],87%
same,"% reduction of schistosomule growth at day 21 after per os application of 200 mg/kg, TWR (%)",[2],82%
same,"% reduction of adult worms growth at day 49 after per os application of 200 mg/kg, TWR (%)","[3]; single 200 mg/kg per os, 49-day-old adults, total worm reduction rate",24%
same,"Adult worms day 49, per os 200 mg/kg, DEAD WORM (%)","[3]; single 200 mg/kg per os, percentage of dead worm in the liver",29%
same,"% reduction of adult worms growth at day 49 after per os application of 400 mg/kg, TWR (%)",[3]; [10],0%
same,"Adult worms day 49, per os 400 mg/kg, DEAD WORM (%)",[3]; [11],17%
same,"% reduction of adult worms growth at day 49 after per os application of 600 mg/kg, TWR (%)","[3]; single 600 mg/kg per os, 49-day-old adults, total worm reduction rate",0%
same,"Adult worms day 49, per os 600 mg/kg, DEAD WORM (%)","[3]; single 600 mg/kg per os, percentage of dead worm in the liver",14%
same,Time of Recrudescence,P. berghei ANKA strain [4],11.2 days
CC1(C)COC2(CCC3(CC2)OOC2(O3)C3CC4CC(C3)CC2C4)OC1 (stereo not drawn) [OZ11],ED90,[1],6.2 mg/kg
same,ED99,[1],8.2 mg/kg
same,"% reduction of schistosomule growth at day 21 after per os application of 200 mg/kg, FWR (%)",[2],84%
same,"% reduction of schistosomule growth at day 21 after per os application of 200 mg/kg, TWR (%)",[2],85%
same,"% reduction of adult worms growth at day 49 after per os application of 400 mg/kg, TWR (%)",[3]; [10],16%
same,"Adult worms day 49, per os 400 mg/kg, DEAD WORM (%)",[3]; [11],4%
same,Time of Recrudescence,P. berghei ANKA strain [4],22.2 days
"C[C@H]1[C@H](OC(=O)CCC(=O)O)O[C@@H]2O[C@@]3(C)CC[C@H]4[C@H](C)CC[C@@H]1[C@@]24OO3 [AS, artesunate, reference compound]",Survival (days) 3 mg/kg SSV po,[5]; single 3 mg/kg po in SSV,8.0 days
same,Activity (%) 3 mg/kg SSV po,"[5]; single 3 mg/kg po in SSV, percent reduction in parasitemia on day 3",66%
same,Survival (days) 10 mg/kg SSV po,"[5]; single 10 mg/kg po in SSV, untreated 6-7 days",7.0 days
same,Activity (%) 10 mg/kg SSV po,"[5]; single 10 mg/kg po in standard suspending vehicle (SSV) on day 1 post-infection, percent reduction in parasitemia on day 3",87%
same,Rat Oral Bioavailability 25 mg/kg (DHA),[6],21%
same,ED50,[1],4.7 mg/kg
same,ED90,[1],19 mg/kg
same,ED99,[1],60 mg/kg
same,Prophylactic Activity (%) 24 h,P. berghei ANKA strain [7]; single 100 mg/kg po 24 h before infection,6.28%
same,Prophylactic Activity (%) 0 h,P. berghei ANKA strain [7]; single 100 mg/kg po at 0 h,92.44%
same,Cures 3 × 10 mg/kg p.o. SSV,"P. berghei ANKA strain [8]; 10 mg/kg po on days 1, 2, 3, cure = survival to day 30 post-infection",0/5
same,Survival (days) 3 × 10 mg/kg p.o. SSV,"P. berghei ANKA strain [8]; 10 mg/kg po on days 1, 2, 3 post-infection",11 days
same,Activity (%) 3 × 10 mg/kg p.o. SSV,"P. berghei ANKA strain [8]; 10 mg/kg po on days 1, 2, 3 post-infection, parasitemia reduction on day 4",98.62%
same,Survival (days) 1 × 30 mg/kg p.o. SSV,P. berghei ANKA strain [8]; single 30 mg/kg po on day 1 post-infection,9 days
same,Activity (%) 1 × 30 mg/kg p.o. SSV,"P. berghei ANKA strain [8]; single 30 mg/kg po on day 1 post-infection, parasitemia reduction on day 4",83.83%
same,Cures 1 × 30 mg/kg p.o. SSV,"P. berghei ANKA strain [8]; single 30 mg/kg po, cure = survival to day 30 post-infection",0/5
same,Survival,P. berghei ANKA strain [9]; [12],6.8 days
same,Activity (%),P. berghei ANKA strain [9]; [12],39%
same,Survival,P. berghei ANKA strain [9]; [13],9.4 days
same,Activity (%),P. berghei ANKA strain [9]; [13],78%
same,Time of Recrudescence,P. berghei ANKA strain [4],8.6 days
